From paper PMC5218480 (PLoS ONE, 2017)

Tested on: MV-4-11 cells
Test: Gene expression microarray analysis (Affymetrix PrimeView) and GSEA
Type: cell-based, human
Design: RFU PODN (11730768_x_at) / Fold change /veh PODN (11730768_x_at) / RFU LINC00158 (11744669_a_at) / Fold change /veh LINC00158 (11744669_a_at) / RFU DUSP10 (11751237_a_at) / Fold change /veh DUSP10 (11751237_a_at) / RFU ID3 (11757404_x_at) / Fold change /veh ID3 (11757404_x_at) / RFU PLEKHG5 (11737974_s_at) / Fold change /veh PLEKHG5 (11737974_s_at) / RFU LRRC4B (11730491_at) / Fold change /veh LRRC4B (11730491_at) / RFU GIMAP4 (11747438_a_at) / Fold change /veh GIMAP4 (11747438_a_at) / RFU KRT8 (11758183_x_at) / Fold change /veh KRT8 (11758183_x_at) / RFU CNN1 (11734310_a_at) / Fold change /veh CNN1 (11734310_a_at) / RFU VPS37D (11726825_at) / Fold change /veh VPS37D (11726825_at) / RFU C10orf10 (11716522_x_at) / Fold change /veh C10orf10 (11716522_x_at) / RFU KIR2DL2 /// KIR2DL4 /// KIR2DL5A /// KIR2DL5B /// KIR2DS1 /// KIR2DS2 /// KIR2DS3 /// KIR2DS4 /// KIR3DL3 /// KIR3DL3 /// KIR3DS1 (11738374_at) / Fold change /veh KIR2DL2 /// KIR2DL4 /// KIR2DL5A /// KIR2DL5B /// KIR2DS1 /// KIR2DS2 /// KIR2DS3 /// KIR2DS4 /// KIR3DL3 /// KIR3DL3 /// KIR3DS1 (11738374_at) / RFU C1QL1 (11718748_at) / Fold change /veh C1QL1 (11718748_at) / RFU TMPRSS4 (11747572_a_at) / Fold change /veh TMPRSS4 (11747572_a_at) / RFU HAMP (11756126_x_at) / Fold change /veh HAMP (11756126_x_at) / RFU RNFT2 (11725882_a_at) / Fold change /veh RNFT2 (11725882_a_at) / RFU NR4A2 (11747474_a_at) / Fold change /veh NR4A2 (11747474_a_at) / RFU ABCC12 (11746883_a_at) / Fold change /veh ABCC12 (11746883_a_at) / RFU TMEM136 (11760407_x_at) / Fold change /veh TMEM136 (11760407_x_at) / RFU CLDN22 /// WWC2 (11732394_at) / Fold change /veh CLDN22 /// WWC2 (11732394_at) / RFU HLA-DPB1 (11760878_x_at) / Fold change /veh HLA-DPB1 (11760878_x_at) / RFU SPINT1 (11716480_a_at) / Fold change /veh SPINT1 (11716480_a_at) / RFU GAP43 (11754022_s_at) / Fold change /veh GAP43 (11754022_s_at) / RFU A4GNT (11735810_at) / Fold change /veh A4GNT (11735810_at) / RFU PRB3 (11715151_x_at) / Fold change /veh PRB3 (11715151_x_at) / RFU TUBB4B (11761932_at) / Fold change /veh TUBB4B (11761932_at) / RFU CAPN14 (11732068_a_at) / Fold change /veh CAPN14 (11732068_a_at) / RFU TMCC2 (11721928_a_at) / Fold change /veh TMCC2 (11721928_a_at) / RFU IRGQ (11745062_a_at) / Fold change /veh IRGQ (11745062_a_at) / RFU FAM174B (11720279_a_at) / Fold change /veh FAM174B (11720279_a_at) / RFU TMPRSS4 (11748680_a_at) / Fold change /veh TMPRSS4 (11748680_a_at) / RFU FAM212B (11763350_a_at) / Fold change /veh FAM212B (11763350_a_at) / RFU PLEKHG5 (11743358_a_at) / Fold change /veh PLEKHG5 (11743358_a_at) / RFU ZSCAN30 (11745921_a_at) / Fold change /veh ZSCAN30 (11745921_a_at) / RFU CMKLR1 (11741424_a_at) / Fold change /veh CMKLR1 (11741424_a_at) / RFU LOC101060620 /// MAPK8IP1 (11723275_at) / Fold change /veh LOC101060620 /// MAPK8IP1 (11723275_at) / RFU SPTSSB (11747773_x_at) / Fold change /veh SPTSSB (11747773_x_at) / RFU PRSS12 (11739890_at) / Fold change /veh PRSS12 (11739890_at) / RFU BIN1 (11741810_x_at) / Fold change /veh BIN1 (11741810_x_at) / RFU WNT11 (11732464_a_at) / Fold change /veh WNT11 (11732464_a_at) / RFU C10orf10 (11716521_a_at) / Fold change /veh C10orf10 (11716521_a_at) / RFU C5orf56 (11738089_at) / Fold change /veh C5orf56 (11738089_at) / RFU CYB561 (11721691_x_at) / Fold change /veh CYB561 (11721691_x_at) / RFU ANKRD19P (11752326_a_at) / Fold change /veh ANKRD19P (11752326_a_at) / RFU OR2T12 /// OR2T33 /// OR2T8 (11738714_s_at) / Fold change /veh OR2T12 /// OR2T33 /// OR2T8 (11738714_s_at) / RFU VCAN (11748164_a_at) / Fold change /veh VCAN (11748164_a_at) / RFU JSRP1 (11732532_at) / Fold change /veh JSRP1 (11732532_at) / RFU KRTAP10-11 (11738290_x_at) / Fold change /veh KRTAP10-11 (11738290_x_at) / RFU MYO3A (11730013_a_at) / Fold change /veh MYO3A (11730013_a_at) / RFU EBF3 (11725865_a_at) / Fold change /veh EBF3 (11725865_a_at) / RFU CAMK2N1 (11719241_x_at) / Fold change /veh CAMK2N1 (11719241_x_at) / RFU C5orf56 (11738088_a_at) / Fold change /veh C5orf56 (11738088_a_at) / RFU OLFML3 (11715873_a_at) / Fold change /veh OLFML3 (11715873_a_at) / RFU LOC100653217 /// NTM (11731650_a_at) / Fold change /veh LOC100653217 /// NTM (11731650_a_at) / RFU MAPK11 (11762145_a_at) / Fold change /veh MAPK11 (11762145_a_at) / RFU FIZ1 (11724087_x_at) / Fold change /veh FIZ1 (11724087_x_at) / RFU OASL (11726364_x_at) / Fold change /veh OASL (11726364_x_at) / RFU SOX15 (11748057_x_at) / Fold change /veh SOX15 (11748057_x_at) / RFU CD79A (11719716_a_at) / Fold change /veh CD79A (11719716_a_at) / RFU HIST1H1D (11736915_at) / Fold change /veh HIST1H1D (11736915_at) / RFU CASKIN2 (11723855_a_at) / Fold change /veh CASKIN2 (11723855_a_at) / RFU LOC730098 (11760151_x_at) / Fold change /veh LOC730098 (11760151_x_at) / RFU OR4N2 (11742367_at) / Fold change /veh OR4N2 (11742367_at) / RFU PRRT2 (11749266_a_at) / Fold change /veh PRRT2 (11749266_a_at) / RFU SNX32 (11753110_a_at) / Fold change /veh SNX32 (11753110_a_at) / RFU CDHR5 (11726645_a_at) / Fold change /veh CDHR5 (11726645_a_at) / RFU RCAN1 (11760418_a_at) / Fold change /veh RCAN1 (11760418_a_at) / RFU FAM167A (11723789_a_at) / Fold change /veh FAM167A (11723789_a_at) / RFU FAM26E (11764081_at) / Fold change /veh FAM26E (11764081_at) / RFU ISYNA1 (11749810_s_at) / Fold change /veh ISYNA1 (11749810_s_at) / RFU ACY1 (11761880_at) / Fold change /veh ACY1 (11761880_at) / RFU 11764098_at / Fold change /veh 11764098_at / RFU SAMD14 (11745864_x_at) / Fold change /veh SAMD14 (11745864_x_at) / RFU NPB (11741838_a_at) / Fold change /veh NPB (11741838_a_at) / RFU TMPRSS6 (11731388_a_at) / Fold change /veh TMPRSS6 (11731388_a_at) / RFU KRTAP10-2 (11738614_at) / Fold change /veh KRTAP10-2 (11738614_at) / RFU ARHGAP8 /// PRR5-ARHGAP8 (11727945_x_at) / Fold change /veh ARHGAP8 /// PRR5-ARHGAP8 (11727945_x_at) / RFU KRTAP5-7 /// NADSYN1 (11734609_at) / Fold change /veh KRTAP5-7 /// NADSYN1 (11734609_at) / RFU RASL12 (11751679_a_at) / Fold change /veh RASL12 (11751679_a_at) / RFU CDKN2B (11736163_a_at) / Fold change /veh CDKN2B (11736163_a_at) / RFU PRF1 (11729649_at) / Fold change /veh PRF1 (11729649_at) / RFU, ZNF638 /// ZNF638-IT1 / Fold change vs veh, ZNF638 /// ZNF638-IT1 / RFU, PANK3 / Fold change vs veh, PANK3 / RFU, SH3YL1 / Fold change vs veh, SH3YL1 / RFU, ZEB2 / Fold change vs veh, ZEB2 / RFU, NRIP1 / Fold change vs veh, NRIP1 / RFU, PTTG1IP / Fold change vs veh, PTTG1IP / RFU, CAPN2 / Fold change vs veh, CAPN2 / RFU, MED14 / Fold change vs veh, MED14 / RFU, SNORA58 / Fold change vs veh, SNORA58 / RFU, C1orf63 / Fold change vs veh, C1orf63 / RFU, LRRFIP1 / Fold change vs veh, LRRFIP1 / RFU, NDUFAF7 / Fold change vs veh, NDUFAF7 / RFU, SLC12A2 / Fold change vs veh, SLC12A2 / RFU, IBTK / Fold change vs veh, IBTK / RFU, ESF1 / Fold change vs veh, ESF1 / Fold change vs veh, TMEM50B / RFU, TAOK1 / Fold change vs veh, TAOK1 / RFU, ACBD3 / Fold change vs veh, ACBD3 / RFU, TMA16 / Fold change vs veh, TMA16 / RFU, RWDD3 / Fold change vs veh, RWDD3 / RFU, BCAT1 / Fold change vs veh, BCAT1 / RFU, EDEM3 / Fold change vs veh, EDEM3 / RFU, TMEM33 / Fold change vs veh, TMEM33 / RFU, WDR75 / Fold change vs veh, WDR75 / RFU, AHCTF1 / Fold change vs veh, AHCTF1 / RFU, TFRC / Fold change vs veh, TFRC / RFU, ZDHHC17 / Fold change vs veh, ZDHHC17 / RFU, NOM1 / Fold change vs veh, NOM1 / RFU, ARL8B / Fold change vs veh, ARL8B / RFU, ZBTB11 / Fold change vs veh, ZBTB11 / RFU, TAMM41 / Fold change vs veh, TAMM41 / RFU, KIAA1704 /// LOC100996395 / Fold change vs veh, KIAA1704 /// LOC100996395 / RFU, ING1 / Fold change vs veh, ING1 / RFU, TRMT61B / Fold change vs veh, TRMT61B / RFU, FUBP3 / Fold change vs veh, FUBP3 / RFU, TP53 / Fold change vs veh, TP53 / RFU, TNKS2 / Fold change vs veh, TNKS2 / RFU, ZFP14 / Fold change vs veh, ZFP14 / RFU, ACTR2 / Fold change vs veh, ACTR2 / RFU, PPP3R1 / Fold change vs veh, PPP3R1 / RFU, PIK3R1 / Fold change vs veh, PIK3R1 / RFU, HNRNPA1 / Fold change vs veh, HNRNPA1 / RFU, RNF170 / Fold change vs veh, RNF170 / RFU, ZNF28 / Fold change vs veh, ZNF28 / RFU, RNGTT / Fold change vs veh, RNGTT / RFU, OGT / Fold change vs veh, OGT / RFU, BRD1 / Fold change vs veh, BRD1 / RFU, MARS / Fold change vs veh, MARS / RFU, ZNF655 / Fold change vs veh, ZNF655 / RFU, FAHD1 / Fold change vs veh, FAHD1 / RFU, BDP1 / Fold change vs veh, BDP1 / RFU, LRRCC1 / Fold change vs veh, LRRCC1 / RFU, ARID1A / Fold change vs veh, ARID1A / RFU, ZNF146 / Fold change vs veh, ZNF146 / RFU, ZNF330 / Fold change vs veh, ZNF330 / RFU, GPN3 / Fold change vs veh, GPN3 / RFU, C9orf123 / Fold change vs veh, C9orf123 / RFU, N4BP2L2 / Fold change vs veh, N4BP2L2 / RFU, ARFIP1 / Fold change vs veh, ARFIP1 / RFU, FAM179B / Fold change vs veh, FAM179B / RFU, BCL10 / Fold change vs veh, BCL10 / RFU, UHRF1BP1L / Fold change vs veh, UHRF1BP1L / RFU, BET1 / Fold change vs veh, BET1 / RFU, CNOT2 / Fold change vs veh, CNOT2 / RFU, ZNF268 / Fold change vs veh, ZNF268 / Fold change vs veh, ZNF507 / RFU, DGCR2 / Fold change vs veh, DGCR2 / RFU, WDSUB1 / Fold change vs veh, WDSUB1 / Fold change vs veh, HSP90B1 /// MIR3652 / RFU, ADSS / Fold change vs veh, ADSS / RFU, GK / Fold change vs veh, GK / RFU, ZNF148 / Fold change vs veh, ZNF148 / RFU, TAF9 / Fold change vs veh, TAF9 / RFU, SLC1A5 / Fold change vs veh, SLC1A5 / RFU, SLMO2 / Fold change vs veh, SLMO2 / RFU, ABCC4 / Fold change vs veh, ABCC4 / RFU, LOC101060439 /// RAP1B / Fold change vs veh, LOC101060439 /// RAP1B / RFU, RFX7 / Fold change vs veh, RFX7 / RFU, GTPBP10 / Fold change vs veh, GTPBP10 / RFU, CNEP1R1 / Fold change vs veh, CNEP1R1 / RFU, BIVM-ERCC5 /// ERCC5 / Fold change vs veh, BIVM-ERCC5 /// ERCC5 / RFU, ILF3 / Fold change vs veh, ILF3 / RFU 11762660_at / Fold change /veh 11762660_at / RFU VCAN (11757783_s_at) / Fold change /veh VCAN (11757783_s_at) / RFU DDX43 (11728927_at) / Fold change /veh DDX43 (11728927_at) / RFU KRT8 (11758188_x_at) / Fold change /veh KRT8 (11758188_x_at) / RFU NKD1 (11759106_at) / Fold change /veh NKD1 (11759106_at) / RFU SRD5A1 (11742802_a_at) / Fold change /veh SRD5A1 (11742802_a_at) / RFU TPSAB1 /// TPSB2 (11721975_s_at) / Fold change /veh TPSAB1 /// TPSB2 (11721975_s_at) / RFU GSTM3 (11746129_a_at) / Fold change /veh GSTM3 (11746129_a_at) / RFU IL23R (11737362_x_at) / Fold change /veh IL23R (11737362_x_at) / RFU TMEM51 (11727254_a_at) / Fold change /veh TMEM51 (11727254_a_at) / RFU PIWIL2 (11732686_x_at) / Fold change /veh PIWIL2 (11732686_x_at) / RFU ORM1 (11744905_x_at) / Fold change /veh ORM1 (11744905_x_at) / RFU CCDC152 (11743942_at) / Fold change /veh CCDC152 (11743942_at) / RFU ECM1 (11717891_a_at) / Fold change /veh ECM1 (11717891_a_at) / RFU IL23R (11748794_a_at) / Fold change /veh IL23R (11748794_a_at) / RFU TNFAIP8L3 (11732012_x_at) / Fold change /veh TNFAIP8L3 (11732012_x_at) / RFU MBOAT4 (11741988_at) / Fold change /veh MBOAT4 (11741988_at) / RFU 11764193_at / Fold change /veh 11764193_at / RFU TMEM53 (11763286_at) / Fold change /veh TMEM53 (11763286_at) / RFU MAGEB2 (11727129_at) / Fold change /veh MAGEB2 (11727129_at) / RFU TMEM200A (11744735_a_at) / Fold change /veh TMEM200A (11744735_a_at) / RFU CCDC152 (11751479_a_at) / Fold change /veh CCDC152 (11751479_a_at) / RFU FAM211A (11726209_a_at) / Fold change /veh FAM211A (11726209_a_at) / RFU RGS16 (11746705_a_at) / Fold change /veh RGS16 (11746705_a_at) / RFU VCAN (11755009_s_at) / Fold change /veh VCAN (11755009_s_at) / RFU RHOB (11743442_s_at) / Fold change /veh RHOB (11743442_s_at) / RFU RGS16 (11720943_a_at) / Fold change /veh RGS16 (11720943_a_at) / RFU RGS16 (11720944_at) / Fold change /veh RGS16 (11720944_at) / RFU, VPS4B / Fold change vs veh, VPS4B / RFU, CREB1 / Fold change vs veh, CREB1 / RFU, DNAJC13 / Fold change vs veh, DNAJC13 / RFU, GNAQ / Fold change vs veh, GNAQ / RFU, CDK5R1 / Fold change vs veh, CDK5R1 / RFU, ZRANB3 / Fold change vs veh, ZRANB3 / RFU, CUL4A / Fold change vs veh, CUL4A / RFU, CCNY / Fold change vs veh, CCNY / RFU, UFL1 / Fold change vs veh, UFL1 / RFU, COG3 / Fold change vs veh, COG3 / RFU, DIAPH2 / Fold change vs veh, DIAPH2 / RFU, SKA2 / Fold change vs veh, SKA2 / RFU, AFF3 / Fold change vs veh, AFF3 / RFU, LMF1 / Fold change vs veh, LMF1 / RFU, IPO11 / Fold change vs veh, IPO11 / RFU, DFFB / Fold change vs veh, DFFB / RFU, FOXP1 / Fold change vs veh, FOXP1 / RFU, CARD8 / Fold change vs veh, CARD8 / RFU, STRN3 / Fold change vs veh, STRN3 / RFU, ADK / Fold change vs veh, ADK / RFU, RASSF2 / Fold change vs veh, RASSF2 / RFU, WIPF1 / Fold change vs veh, WIPF1 / RFU, LARP1B / Fold change vs veh, LARP1B / RFU, RASA1 / Fold change vs veh, RASA1 / RFU, RB1 / Fold change vs veh, RB1 / RFU, PPFIA1 / Fold change vs veh, PPFIA1 / RFU, MAT2A / Fold change vs veh, MAT2A / RFU, CCT5 / Fold change vs veh, CCT5 / RFU, WDR92 / Fold change vs veh, WDR92 / RFU, CUX1 / Fold change vs veh, CUX1 / RFU, TTC7A / Fold change vs veh, TTC7A / RFU, TMEM135 / Fold change vs veh, TMEM135 / RFU, DEPTOR / Fold change vs veh, DEPTOR / RFU, CPM / Fold change vs veh, CPM / RFU, DNAJB6 / Fold change vs veh, DNAJB6 / RFU, CACNA2D3 / Fold change vs veh, CACNA2D3 / RFU, DTX4 / Fold change vs veh, DTX4 / RFU, TFCP2 / Fold change vs veh, TFCP2 / RFU, GMCL1 /// GMCL1P1 / Fold change vs veh, GMCL1 /// GMCL1P1 / RFU, AEBP2 / Fold change vs veh, AEBP2 / RFU, SNHG1 /// SNORD22 /// SNORD25 /// SNORD26 /// SNORD27 /// SNORD28 /// SNORD29 /// SNORD31 / Fold change vs veh, SNHG1 /// SNORD22 /// SNORD25 /// SNORD26 /// SNORD27 /// SNORD28 /// SNORD29 /// SNORD31 / Fold change (Aza/veh), C12orf56 (ProbeSet 11735607_a_at) / Fold change (ACY-1035/veh), C12orf56 (ProbeSet 11735607_a_at) / Fold change (Aza/veh), FGFR1OP (ProbeSet 11751329_s_at) / Fold change (ACY-1035/veh), FGFR1OP (ProbeSet 11751329_s_at) / Fold change (Aza/veh), VPS36 (ProbeSet 11739960_a_at) / Fold change (ACY-1035/veh), VPS36 (ProbeSet 11739960_a_at) / RFU SYPL1 (11715823_x_at) / Fold change /veh SYPL1 (11715823_x_at) / RFU IGFBP7 (11715501_s_at) / Fold change /veh IGFBP7 (11715501_s_at) / RFU REEP3 (11722064_at) / Fold change /veh REEP3 (11722064_at) / RFU IGLL1 (11728026_x_at) / Fold change /veh IGLL1 (11728026_x_at): dose or concentration left out as unconfirmed
Details: ProbeSet 11721969_s_at; LIST B

Nc1ncn([C@@H]2O[C@H](CO)[C@@H](O)[C@H]2O)c(=O)n1 [azacitidine]
RFU, BDP1: 496.27 RFU
